Measured values taken from patent US20230248762A1, “Method and composition for supporting normal blood calcium concentrations in mammals” (Contract Manufacturing Services, LLC, priority 2022, published 2023).

What was measured:
blood calcium = settings: oral 50 g calcium; cited from earlier work
[1] = test system: plasma calcium concentration; experiment: Plasma calcium after calving, herds without anionic diet (Example 5); assay type: in vivo, multiparous cows
Text: For examples 2 thru 5, statistical analysis consisted of repeated measures analysis of variance with cow nested within treatment and time after bolus administration as the repeated measure. Treatment plasma calcium means were compared at each time point using Tukey's test of comparison of means and differences are declared to be significant when the probability of the null hypothesis being correct is P<0.075.
In Example 5, multiparous cows were utilized from several small farms that were not utilizing an anionic diet to reduce the incidence of hypocalcemia in the cows. Within a few hours of calving, cows were administered one of four treatments. Six cows were not treated with any bolus after calving (No Bolus). Four cows were treated with intravenous calcium (10.5 g calcium in the form of calcium gluconate) after calving (IV Ca). Twenty-two cows received 2 boluses after calving that contained calcium salts and Solanum glaucophyllum leaf, supplying 78 g calcium and 1,25-dihydroxyvitamin D3 glycoside equivalent to 196 ug 1,25-dihydroxyvitamin D3 (Ca+SG Bolus). Twenty-four cows were treated at calving and again 12-24 hrs. later with commercial oral calcium salt boluses that supplied 40-44 g calcium each for a total calcium dose of 80-88 g, primarily from calcium chloride (Ca Bolus).

| Compound | calcium absorbed into the blood (blood calcium) | duration of increase of blood calcium (blood calcium) [h] | increase of blood calcium (blood calcium) | time to increase of blood calcium (blood calcium) [h] | effect on calcium homeostasis mechanisms of the cow ([1]; 10.5 g calcium intravenous) | plasma calcium concentration, rank among treatments ([1]; 24 to 84 hours after calving) | hypocalcemia versus no treatment ([1]; days 2 and 3 following lactation) | plasma calcium concentration, rank among treatments ([1]; four hours after calving) |
| --- | --- | --- | --- | --- | --- | --- | --- | --- |
| [Ca+2].[Cl-].[Cl-] [calcium chloride] | about 4 g | 6 to 8 | approximately 1 mg/dl | ≤ 1 |  |  |  |  |
| calcium gluconate [Ca IV] |  |  |  |  | inhibited the calcium homeostasis mechanisms | lowest plasma calcium concentration | more hypocalcemia | highest plasma calcium concentration |
